# Where two headings read alike, the source gives them in different places. Where a SMILES comes first, the peptide text is derived from it.
# Experiments:
# [1] = system: ChAT-positive neurons in the striatum; assay: ChAT immunohistochemistry in striatum of aging rats; assay type: in vivo, rat; conditions: single s.c. dose 0.012-12 mg/kg; 18-month old rats; 3 days after treatment
# Protocol: Eighteen-month old male rats received one of five treatments. A control group was treated with vehicle (saline alone (n=4) and four groups were treated with a single dose of G-2-MePE. […] Rats were sacrificed with an overdose of pentobarbital 3 days after drug treatment. Brains were perfused with normal saline and 4% paraformaldehyde and fixed in perfusion fixative overnight. Brains were stored in 25% sucrose in 0.1M PBS (pH7.4) until the tissue sank. Frozen coronal sections of striatum were cut with a microtome and stored in 0.1% sodium azide in 0.1M PBS at 4° C. Immunoreactivity for choline acetyltransferase (ChAT) was established by staining using a free floating section method. Briefly, antibodies were diluted in 1% goat serum. The sections were incubated in 0.2% triton in 0.1M PBS/Triton™ at 4° C. overnight before Immunohistochemical staining. The sections were pre-treated with 1% H2O2 in 50% methanol for 20 min. The sections were then incubated with rabbit (Rb) anti-ChAT (1:5000) antibodies (the primary antibodies) in 4D on a shaker for two days. The sections were washed using PBS/Triton™ (15 minutes×3d) and then incubated with goat anti-rabbit biotinylated secondary antibodies (1:1000) at room temperature overnight. […] The size of the striatal region used for the count was measured using an image analyser. […] Data were analysed using a paired t-test and presented as mean+/−SEM.
# [2] = Pharmacokinetic studies, plasma half-life; assay type: in vivo; conditions: rat
# Protocol: The ability of the rats to remember or to relearn the original platform location was tested four weeks after original training. This means that residual drug would have been washed out for a minimum of 7 days in the case of the 3-week pumps, and 21 days in the case of the 1-week pumps. The retention testing procedure was identical to that of acquisition. Pharmacokinetic studies indicate that the plasma concentration of subcutaneously administered G-2-MePE rose to a peak and then declined with an approximately first order kinetic pattern, with a plasma half-life (t ½) of between about 30 and 60 minutes. Thus, by the time the retention study was performed, at least 7 days after removal of the G-2-MePE containing minipumps, nearly all of the G-2-MePE had been cleared from the animals' circulation.
# [3] = system: hippocampal CA1 neurons of mecp2 null mutant mice; assay: Dendritic arborization and spine analysis, Golgi staining (Example 9); assay type: in vivo, mouse
# Protocol: We assess the effects of G-2-MePE treatment on dendrites. Transgenic mecp2 knockout mice (n=15 to 20) were administered G-2-MePE intraperitoneally at a dose of 20 mg/kg once daily. Following sacrifice dendritic spine density, spine length and aborization were examined after Golgi staining after nine weeks, as per the Table 1 below:
# Dendritic length was assessed by distance from the soma of representative hippocampal CA1 neurons from 9 week old male mecp2 null mutant mice treated with either saline (3 neurons analysed from 3 separate mice, n=9) or G-2-MePE (20 mg/kg i.p. 1/day, from week 4; 3 neurons analysed from 3 separate mice, n=9).
# [4] = system: MeCP2 deficient mice; assay: Survival after oral administration (Example 11); assay type: in vivo, mouse; conditions: 20 or 80 mg/kg daily
# Protocol: Therefore, we administer G-2-MePE orally to MeCP2 deficient mice as described in US 2009/0074865. Briefly, an aqueous solution, a water-in-oil emulsion (micro-emulsion, coarse emulsion or liquid crystal), or a gel composition containing a pharmaceutically effective amount of G-2-MePE (20 or 80 mg/kg per animal) is administered daily. In control MeCP2 deficient animals, we administer saline only, and wild-type animals are used to obtain baseline data similar to the design of studies described in Example 8 above.
# [5] = system: fmr1 knockout mice; assay: Open field test, fmr1 knockout mice; assay type: in vivo, mouse; conditions: 100 mg/kg i.p. 28 days
# Protocol: 1. fmr1 KO+Vehicle (saline) 2. Wt+Vehicle (saline) 3. fmr1 KO+G-2-MePE (100 mg/kg in saline) 4. Wt+G-2-MePE (100 mg/kg in saline).
# G-2-MePE was administered at the dose of 100 mg/kg i.p. in 0.1 ml saline, once daily for 28 days. Vehicle-treated animals were injected with 0.1 ml saline daily for 28 days. Thereafter, drug or vehicle treatments were stopped and animals were tested on successive days until all tests were completed. Finally, the animals were sacrificed for determining expression of pAkt and pERK
# The open field is a grey PVC enclosed arena 50×30 cm divided into 10 cm squares. Mice were brought to the experimental room 5-20 min before testing. A mouse was placed into a corner square facing the corner and observed for 3 min. The number of squares entered (whole body) and rears (both front paws off the ground, but not as part of grooming) were counted. The latency to the first rearing (rear) was also noted. The movement of the mouse around the field was recorded with a video tracking device for 300 s (vNT4.0, Viewpoint). The latency for the mouse to enter the brightest, central part of the field total time spent in this central region, and total activity (in terms of path length in centimeters), were recorded in each trial, the initial exposure, 10 min after the initial exposure and 24 h after the initial exposure.
# During exposure to the open field chamber mice habituated to the environment and thus explored less, decreasing the amount movement shown over time. Movement and rearing were recorded during the 3 exposures. Failures to reduce locomotion or rearing at 10 minutes and 24 hours indicated deficits in short and long term memory, respectively.
# [6] = system: fmr1 knockout mice; assay: Elevated plus maze, fmr1 knockout mice; assay type: in vivo, mouse
# Protocol: G-2-MePE was administered at the dose of 100 mg/kg i.p. in 0.1 ml saline, once daily for 28 days. Vehicle-treated animals were injected with 0.1 ml saline daily for 28 days. Thereafter, drug or vehicle treatments were stopped and animals were tested on successive days until all tests were completed. Finally, the animals were sacrificed for determining expression of pAkt and pERK The Elevated Plus Maze (EPM) is a further test system for examining anxiety and locomotor activity. The EPM was built according to the description of Lister (Lister 1987). Briefly, the maze consisted of two open and two closed arms opposite each other in a plus shape, raised above floor height. The open arms were more exposed and therefore more anxiogenic. Wild-type mice therefore spent more time in the closed arms and visited them more. Mice were tested for 5 min and their behaviour was recorded. Measures taken included time spent in the arms and the center of the maze, and number of arm entries.
# [7] = system: gastrointestinal cells; conditions: cited from earlier work
structure (smiles),measurement,setting,value
"C[C@@]1(C(=O)N[C@@H](CCC(=O)O)C(=O)O)CCCN1C(=O)CN [Example G-2-MePE, Glycyl-L-2-methylprolyl-L-glutamic acid] (HELM PEPTIDE1{G.[C[C@@]1(C(=O)[*:2])CCCN1[*:1]].E}$$$$V2.0)",number of ChAT-immunopositive neurons,[1],increased
same,half-life,"[2]; in vivo, read-out: plasma half-life in vivo",~30 min
same,half-life,"[2]; sc, subcutaneously administered, read-out: plasma half-life (t 1/2)",30 to 60 min
same,dendritic length by distance from the soma,"[3]; 20 mg/kg i.p. 1/day from week 4, vs saline",produced longer dendrites
same,dendritic arborization and dendritic spine length,"[3]; 20 mg/kg i.p. once daily, 9 week old mice",improved dendritic arborization and increased dendritic spine length
same,survival,[4],survival is increased substantially
same,rearing activity,[5]; fmr1 KO mice,significantly reduced rearing activity
same,movement in the open field,"[5]; fmr1 knockout mice, 2nd and 3rd trials",significantly reduce movement
same,rearing activity,[5]; wild-type mice,no effect
same,percent open arm entries,[6]; 100 mg/kg i.p. 28 days,completely normalised
same,time spent in the centre,[6]; 28-days treatment,normalised
same,degradation by gastrointestinal cells,[7],not degraded
same,uptake by gastrointestinal cells,[7],taken up

# Source: patent US20150224164A1, “TREATMENT OF AUTISM SPECTRUM DISORDERS USING GLYCYL-L-2-METHYLPROLYL-L-GLUMATIC ACID” (Neuren Pharmaceuticals Limited, priority 2013, published 2015)
